Patent US11426397B2, “Piperidinyl- and piperazinyl-substituted heteroaromatic carboxamides as modulators of GPR6” (TAKEDA PHARMACEUTICAL COMPANY LIMITED, priority 2017, dated 2022)

Experiments:
[1] = biological target: T1, GPR6 receptor expressed in CHO-K1 cells (Homo sapiens, UniProt P46095); test: In vitro inhibition of cAMP (EC50), cell-based HTRF cAMP assay; conditions: inhibition of constitutive cAMP activity of GPR6 in CHO-K1 cells
T1 construct: expressed in transfected cells
How it was run: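 Cellular cAMP measured by Lance Ultra HTRF (Eu-cAMP tracer, ULight anti-cAMP), with EC50 fitted by four-parameter logistic. Test compounds sat on cells 45 min, 37 °C, in pH 7.4 Ringer's with 300 μM IBMX and 0.5% BSA; GPR6 in CHO-K1 induced beforehand by doxycycline, 2 μg/mL, 20 h.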

[2] = system: haloperidol-induced catalepsy; test: In vivo Parkinson's disease model, haloperidol-induced catalepsy; parameters: species or system mice; conditions: mouse catalepsy model, PO
Text: II. In Vivo Parkinson's Disease Model Haloperidol-Induced Catalepsy The motor symptoms of Parkinson's disease include akinesia, bradykinesia, rigidity, tremor and postural abnormalities and are associated with the loss of nigral dopaminergic cells and a decline in striatal dopamine levels. Administration of haloperidol to rodents leads to a transient Parkinsonian-like state that is reversed by the administration of levodopa and other drugs that have been clinically validated for the treatment of Parkinson's disease. See Duty, S. & Jenner, P. Br. J. Pharmacol. 164:1357-1391 (2011). Haloperidol antagonizes dopamine D2, and to a lesser extent, D1 receptors in medium spiny neurons that comprise the indirect and direct pathways of the motor circuit, respectively. The resultant block of striatal dopamine transmission results in abnormal downstream firing within the basal ganglia circuits that is manifest as symptoms of muscle rigidity and catalepsy. Catalepsy has been postulated to reflect the clinical features of Parkinson's disease, whereby patients experience an inability to initiate movements. Male C57B16 mice weighing 25-35 g are used. Catalepsy is induced by the subcutaneous (sc) administration of the dopamine receptor antagonist haloperidol (0.45 mg/kg) at least 30 minutes before testing the animals on a vertical grid test. For this test, the rats or mice are placed on a wire mesh cover of a 25 cm×43 cm plexiglass cage placed at an angle of about 70 degrees with the bench table. The subject is placed on the grid with all four legs abducted and extended (“frog posture”). The use of such an unnatural posture is essential for the specificity of this test for catalepsy. The time span from placement of the paws until the first complete removal of one paw (descent latency) is measured maximally for 120 seconds for rats. For mice, the front paws of the mouse is placed on a horizontal metal bar raised 2″ above a Plexiglas platform and time is recorded for up to 30 seconds per trial. The test ends when the animal's front paws return to the platform or after 30 seconds. The test is repeated three times and the average of the three trials is reported as the intensity index of catalepsy. Animals evaluated at 30 minutes after dosing are reevaluated at 60 or 90 minutes post dosing of haloperidol. Efficacy of GPR6 modulators to reverse haloperidol induced catalepsy is measured 30 minutes, 60 minutes, and/or 90 minutes after dosing the subjects with 0.45 mg/kg ip (intraperitoneal injection) of haloperidol along with the GPR6 modulator test compound. A representative number of compounds of Formula 1 are administered in a dose range from 0.1 to 100 mg/kg (po in 0.5% methyl cellulose) in conjunction with haloperidol. […]

T1 sequence (P46095 whole entry): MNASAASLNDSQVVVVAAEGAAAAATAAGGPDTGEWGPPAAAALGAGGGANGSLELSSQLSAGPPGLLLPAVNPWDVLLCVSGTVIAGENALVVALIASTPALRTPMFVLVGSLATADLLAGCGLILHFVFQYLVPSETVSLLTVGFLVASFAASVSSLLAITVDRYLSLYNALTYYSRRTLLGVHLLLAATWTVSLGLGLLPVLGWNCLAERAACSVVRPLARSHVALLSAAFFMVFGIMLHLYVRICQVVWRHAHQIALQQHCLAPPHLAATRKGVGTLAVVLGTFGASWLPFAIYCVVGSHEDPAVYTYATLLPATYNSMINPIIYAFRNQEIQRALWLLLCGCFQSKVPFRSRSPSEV

Row | pEC50, in vitro inhibition of cAMP [1] | melting point [°C] | SMILES | % reversal ([2]; dose 1 mpk, time 60 minutes) [%] | % reversal ([2]; dose 1 mpk, time 30 minutes) [%] | % reversal ([2]; dose 1 mpk, time 90 minutes) [%] | % reversal ([2]; dose 3 mpk, time 60 minutes) [%]
1 | 7.1 |  | COc1ncccc1C(=O)Nc1cnc(C(=O)N(C)C)cc1N1CCC(Oc2ccc(F)cc2F)CC1 [Example 31, 4-(4-(2,4-difluorophenoxy)piperidin-1-yl)-5-(2-methoxynicotinamido)-N,N-dimethylpicolinamide] | 47 |  |  | 
2 | 6.9 | 138 | COc1cc(N2CCC(Oc3ccc(F)cc3F)CC2)c(NC(=O)c2cccnc2OC)cn1 [Example 20, N-(4-(4-(2,4-difluorophenoxy)piperidin-1-yl)-6-methoxypyridin-3-yl)-2-methoxynicotinamide] |  |  |  | 
3 | 6.8 |  | COc1ncccc1C(=O)Nc1cnc(C)nc1N1CCC(Oc2ccc(F)cc2F)CC1 [Example 18, N-(4-(4-(2,4-difluorophenoxy)piperidin-1-yl)-2-methylpyrimidin-5-yl)-2-methoxynicotinamide] |  | 53 | 37 | 

Continued, compound first:

Row | SMILES | pEC50, in vitro inhibition of cAMP [1] | melting point [°C] | % reversal ([2]; dose 1 mpk, time 60 minutes) [%] | % reversal ([2]; dose 1 mpk, time 30 minutes) [%] | % reversal ([2]; dose 1 mpk, time 90 minutes) [%] | % reversal ([2]; dose 3 mpk, time 60 minutes) [%]
4 | COc1ccccc1C(=O)Nc1cc(S(C)(=O)=O)ccc1N1CCC(Oc2ccc(F)cc2F)CC1 [Example 6, N-(2-(4-(2,4-difluorophenoxy)piperidin-1-yl)-5-(methylsulfonyl)phenyl)-2-methoxybenzamide] | 7.3 | 201 |  |  |  | 
5 | COc1nc(C)ccc1C(=O)Nc1cnc(C(=O)N(C)C)cc1N1CCC(Oc2ccc(F)cc2F)CC1 [Example 283, 4-(4-(2,4-difluorophenoxy)piperidin-1-yl)-5-(2-methoxy-6-methylnicotinamido)-N,N-dimethylpicolinamide] | 6.8 |  |  |  |  | 47
6 | COc1ccncc1C(=O)Nc1cc(S(C)(=O)=O)ccc1N1CCC(Oc2ccc(F)cc2F)CC1 [Example 7, N-(2-(4-(2,4-difluorophenoxy)piperidin-1-yl)-5-(methylsulfonyl)phenyl)-4-methoxynicotinamide] | 7.4 | 173 |  |  |  | 
